# From patent publication US20060167229A1, “Biologically active peptide conjugates” (priority 2002, published 2006)
# Marks after values point to notes of the source that are not given here. Ends that are not written are not given here.
# What was measured:
# [1] = test system: B16 melanoma; experiment: Melanoma lung metastasis foci after inoculation of B16 melanoma cells; assay type: in vivo, C57BL/6 mice
# Protocol: Intraperitoneal injection, once per day. […] Treatment of all groups with testing substance lasted for 30 days or until the animal died unless otherwise specified. […] The cell concentration was adjusted to 1×10^5 per ml with Hank's solution and 0.1 ml of the cell suspension was injected via the tail vein into the testing mice to generate the B16 melanoma bearing animal model. Treatment with test substance started as described in section Method 1. […] Postmortem Examination of the Animals was Performed. The Pathological Changes were Recorded, and the Numbers of Melanoma Lung Metastasis Foci Were Counted. Results
# [2] = test system: mononuclear phagocyte; experiment: Phagocytotic function of mononuclear phagocyte in mice with transplanted S180 sarcoma; assay type: in vivo, BALB/c mice; conditions: saline 5.38 ± 0.85
# Protocol: (§1) Intraperitoneal injection, once per day. […] Treatment of all groups with testing substance lasted for 30 days or until the animal died unless otherwise specified.
# Stock S180 sarcoma cells were incubated in DMEM/F12 medium supplemented with 10% fetal bovine serum, 37° C., 5% CO2 for 72 hrs, then washed 3-4 times with Hank's solution at room temperature. Adjust the cell concentration to 1-2×10^9 per litre with Hank's solution. […] The mice were killed by cervical vertebra dislocation. Vigorously growing and non-disrupted tumor masses were harvested and washed clean with sterile saline. The tissue was dispersed in saline to a homogenous cell suspension, in a ratio of 1 g tissue to 4 ml saline. The sarcoma bearing mice model was prepared with an injection of 0.2 ml cell suspension through the armpit. Administration of test substance treatment started as described in section Method 1.
# 2.1 The effect of peptides on the phagocytotic function of mononuclear phagocyte in mice with S180 sarcoma was analysed by injecting mice from the tail vein with 0.1 ml/10 g body weight of Indian ink (1:5 dilution with normal saline) on the second day after the last test substance administration. At one minute and five minutes after the injection, 20 μl blood was obtained from the eye canthus with heparinised tubing. The blood was mixed with 2 ml 0.1% w/v Na2CO3 and then OD680 nm obtained. The outline clear index K was calculated by the following formula: K=(lgA1−lgA2)÷(t2−t1)
# After the phagocytosis index study, the mice were killed by cervical vertebra dislocation. The liver, spleen, and cancer tissue were dissected, blotted dry, and weighed. The phagocytosis index a was calculated as below: α=(^3√{square root over ( )}K)×(W÷WLS)
# [3] = test system: Duck Hepatitis B Virus (DHBV); experiment: Chongqing duck hepatitis B model, serum DHBV DNA by dot-blot hybridization; assay type: in vivo, Chongqing ducks
# Protocol: Chongqing duck hepatitis B model was set up and treated with peptides by intraperitoneal injection (50 μg/kg/day, once per day) for 4 weeks. The serum level of DHBV DNA was analyzed by serum dot-blot hybridization. Lamivudine and normal saline treatment was used as positive and negative control respectively. […] It is concluded that CMS001 at suitable dosage level can be used as a part, or on its own, for viral hepatitis infection management. One-day old Chongqing ducks were inoculated with 0.1 ml stock serum positive of Duck Hepatitis B Virus (DHBV) DNA (5×10^7 copy/ml) by intraperitoneal injection. One week later, blood samples were collected from the external jugular vein and infection was confirmed by dot-blot hybridization with DHBV DNA probe labeled with digoxin^[2]. The ducks were breed to 2 weeks old for entrance into the study. […] Treatment lasted for 4 weeks and observation continued for another one week after termination of treatment. 1 ml blood samples were drawn from the external jugular vein of the ducks on days 0, 7, 14, 21, 28, and 35 when treatment started. Sera of the blood samples were isolated immediately^[3] and stored at −20° C. until analysis. 4. Serum DHBV DNA Level Determinations DHBV DNA probe was fluorescent labeled according to the labeling kit protocol from the kit manufacturer (Amersham Pharmacia Biotech Co.). 40 μl duck sera were dot-blotted (1 duplicated dot per sample) onto nitro-cellulose membrane and hybridized with fluorescent-labeled DHBV DNA probe for quantitation^[2]. After completion of hybridization, the blots were developed in CDP-Star fluorimetry reagent RPN3690 and scanned with Vuego Scan (Brisa-620st) scanner. ImageMaster TotalLab v1.11.Ink software was used for quantitative analysis of the blots. Statistical analysis was carried out according to the pair t-test with SPSS software.
# [4] = test system: L1210 leukemia; experiment: Survival of mice with transplanted L1210 leukemia; assay type: in vivo, DBA/2 mice; conditions: for Survival days: saline 16.6 ± 5.6
# Protocol: as §1
# Stock L1210 cells were incubated in DMEM/F12 medium supplemented with 10% fetal bovine serum, 37° C./5% CO2 for 72 hrs, then washed 3-4 times with Hank's solution, and adjusted to […]. 0.1 ml of the cell suspension was implanted into the abdominal cavity of several healthy DBA mice for 6-8 days. The mice were then killed by cervical vertebra dislocation and their ascitic fluid collected aseptically. The cell concentration of the collected ascitic fluid was adjusted to 1×10^5 per ml with Hank's solution. 0.1 ml of the cell suspension was implanted into each of the testing animal and the survival data of the animals recorded. Treatment started in the testing animals as described in section Method 1. Mean survival day was obtained by the Kaplan-meier method in the Survival option of the SPSS software. If the animal survived longer than the experiment, the survival days was entered as the duration of the experiment. The survival index was calculated according to the following formula: Survival index=(mean survival days of treatment group−mean survival days of control group)÷mean survival days of control group 6. The Effect of Peptides on the Humoral Immunity of C57BL/6 Mice Bearing Transplanted B16 Melanoma and that on the Metastatic Potential of the Inoculated Melanoma Cells
# [5] = dose 0.5 μg/kg i.p. once per day
# [6] = controls: IL-2, IFN-γ 3 × 10^5 IU/kg, cyclophosphamide 20 mg/kg
molecule,measurement,setting,value
IGMESAGIHETTY [CMS016],"B16 metastatic foci in the lung, postmortem examination",[1]; 5 μg/kg/day,did not show any sign of existence of B16 metastatic foci in the lung
same,"B16 metastatic foci in the lung, postmortem examination",[1]; 500 μg/kg/day,did not show any sign of existence of B16 metastatic foci in the lung
KAVGHLDDLPGAL [CMS008],"B16 metastatic foci in the lung, postmortem examination",[1]; 0.5 μg/kg/day,did not show any sign of existence of B16 metastatic foci in the lung
same,"B16 metastatic foci in the lung, postmortem examination",[1]; 5 μg/kg/day,did not show any sign of existence of B16 metastatic foci in the lung
same,"B16 metastatic foci in the lung, postmortem examination",[1]; 50 μg/kg/day,did not show any sign of existence of B16 metastatic foci in the lung
PTTKTYFPHF [CMS001],Phagocytosis index,[2]; dose 5 μg/kg i.p. once per day,6.67 ± 0.43*^
same,Phagocytosis index,[2]; dose 50 μg/kg i.p. once per day,6.24 ± 0.33*^
same,serum DHBV DNA titre upon termination of treatment,"[3]; 50 μg/kg/day i.p. for 4 weeks, then one week observation",rebounded to a value with no statistical difference from that before treatment
same,DHBV DNA level (Mean ± Standard Deviation),"[3]; Day 0 (before treatment), CMS001 50 μg/kg/day i.p., lamivudine 50 mg/kg/day oral, saline 26 ± 12",21 ± 18 10^3 units
same,DHBV DNA level (Mean ± Standard Deviation),"[3]; Day 7, CMS001 50 μg/kg/day i.p., lamivudine 50 mg/kg/day oral, saline 45 ± 31",11 ± 13 10^3 units
same,DHBV DNA level (Mean ± Standard Deviation),"[3]; Day 14, CMS001 50 μg/kg/day i.p., lamivudine 50 mg/kg/day oral, saline 49 ± 23",20 ± 18 10^3 units
same,DHBV DNA level (Mean ± Standard Deviation),"[3]; Day 21, CMS001 50 μg/kg/day i.p., lamivudine 50 mg/kg/day oral, saline 102 ± 66",14 ± 14 10^3 units
same,DHBV DNA level (Mean ± Standard Deviation),"[3]; Day 28 (end of 4 weeks treatment), CMS001 50 μg/kg/day i.p., lamivudine 50 mg/kg/day oral, saline 60 ± 38",5 ± 3* 10^3 units
same,DHBV DNA level (Mean ± Standard Deviation),"[3]; Day 35 (one week after termination of treatment), saline 50 ± 43",18 ± 16 10^3 units
Phe Val Asn Asp (FVND; listed as Sus scrofa) [CMS035],Survival index (%),[4]; [5],76.1%
same,Survival days,[4]; [5],29.3 ± 15.4 days
Pro Gln Asn Phe (PQNF; printed: Pro Gln Asn Phe) [CMS034],Phagocytosis index,[2]; [5],6.35 ± 1.02
same,Phagocytosis index,[2]; dose 5 μg/kg i.p. once per day,6.20 ± 0.44*^
VGMGQKDSY,Survival index (%),[4]; [5],26.8%
same,Survival days,[4]; [5],21.1 ± 5.8 days
"IFN-γ: recombinant mouse IFN-γ (rmIFN-γ), Beijing Biotech Inc.; positive control (protein, UniProt P01580 23-155, looked up) Interferon gamma: HGTVIESLESLNNYFNSSGIDVEEKSLFLDIWRNWQKDGDMKILQSQIISFYLRLFEVLKDNQAISNNISVIESHLITTFFSNSKAKKDAFMSIAKFEVNNPQVQRQAFNELIRVVHQLLPESSLRKRKRSRC",Phagocytosis index,[2]; [6],5.45 ± 0.71
same,Survival days,[4]; [6],15.6 ± 2.2 days
